Oligonucleotides are written 5' to 3', each unit as a sugar letter and its base; * is a phosphorothioate linkage, no mark a phosphodiester; rarer units and linkages stand in square brackets, end groups in braces. Plain capitals give the bases only. d = 2'-deoxy (DNA); {P} = phosphate
Tests used:
human melanocytes = test: Melanogenesis in human melanocytes; type: cell-based; conditions: after one week in culture
p53, E2F1 = test: Western analysis of p53 and E2F1 in Jurkat cells; type: cell-based, human; conditions: by 24 hours
Experimental: Oligonucleotides homologous to the telomere overhang repeat sequence (TTAGGG; SEQ ID NO:11), sequence (11mer-1: pGTTAGGGTTAG; SEQ ID NO: 5), complementary to this sequence (11mer-2: pCTAACCCTAAC; SEQ ID NO: 9) and unrelated to the telomere sequence (11mer-3: pGATCGATCGAT; SEQ ID NO: 10) were added to cultures of Jurkat cells, a line of human T cells, one of the cell types reported to undergo apoptosis in response to telomere disruption. Within 48 hours, 50% of the cells treated with 40 μM of SEQ ID NO: 5 had accumulated in the S phase, compared to 25–30% for control cells (p<0.0003, non-paired t-test; see FIGS. 19A–19D), and by 72 hours, 13% of these cells were apoptotic as determined by a sub-G0/G1 DNA content, compared to 2–3% of controls (p<0.007, non-paired t-test; see FIGS. 19E–19H). At 96 hours, 20±3% of the 11mer-1 treated cells were apoptotic compared with 3–5% of controls (p<0.0001, non-paired t-test). […] The fluorescence intensity of the cells was the same after all treatments at 4 hours and 24 hours.
Cells were plated at a density of 180,000 cells/ml in RPMI 1640 medium supplemented with 3% FBS. […] TUNEL-positive cells were detected by FACS analysis and confocal microscopy. […] Uptake of the oligonucleotides was assessed in 5–10 μm sections with a Carl Zeiss LSM 510 confocal laser microscope. […] Fluorescence was measured on the FL-1 channel. […]

[1] = system: basal keratinocytes (epidermal cell proliferation); test: Epidermal labeling index after topical application; type: in vivo, Guinea pigs; conditions: 100 μM topical, three days, mean ± SD
Experimental: Guinea pigs received one or two daily topical applications of 100 μM pTpT, or vehicle alone as control, for three days. On the fourth day, punch biopsies were obtained and maintained for 7 or 8 hours in primary keratinocyte medium supplemented with 10 μCi/ml ^3H-thymidine (specific activity 9.0 Ci/m mole, NEN). Proliferating cells are expected to incorporate the ^3H-thymidine into newly synthesized DNA. Tissues were then rinsed with cold medium and fixed in 10% phosphate buffered formalin. After a series of dehydration steps, tissues were embedded in paraffin. 6 μm sections were cut and mounted onto glass slides, dipped in NTB-2 Nuclear Track emulsion and kept in the dark at 4° C. for 7 days. Sections were developed in Kodak D-19 developer and stained with hematoxylin and eosin. Labeling index, a measure of DNA replication and therefore cell proliferation, was measured by calculating the percentage of labeled nuclei among 100 basal keratinocytes.

[2] = system: p53-null H1299 lung carcinoma cells; test: Cell growth of p53-null H1299 cells; type: cell-based, human; conditions: 100 μM; days 1–4
From the text: Both the GADD 45 and SDI 1 genes are known to be transcriptionally regulated by the tumor suppressor protein p53. After UV- and γ-irradiation, as well as treatment of cells with DNA-damaging chemical agents, there is a rapid stabilization, phosphorylation and nuclear accumulation of p53 after which this protein binds to specific promoter consensus sequences and modulates the transcription of regulated genes. […] In order to determine whether the inhibitory effect of the dinucleotide pTpT on cell proliferation is mediated in part through p53, the growth response of a p53 null cell line, H1299 lung carcinoma cells, was examined. The p53-null H1299 cells (Sanchez, Y. et al., Science 271:357–360 (1996)) were maintained in DMEM with 10% calf serum. Preconfluent cultures were given fresh medium supplemented with either 100 μM pTpT or diluent. Cells were collected on consecutive days by trypsinization, and counted by Coulter™ counter.

Substance: pGAGTATGAG (DNA, 5' {P}, backbone not given here) [SEQ ID NO: 1]
- increase in melanogenesis (human melanocytes): 51–62%

Substance: pGTTAGGGTTAG (DNA {P}-dGdTdTdAdGdGdGdTdTdAdG) [SEQ ID NO: 5]
- E2F1 level (p53, E2F1): concomitant increase in the level of the E2F1 transcription factor
- p53 level (p53, E2F1): an increase in p53

Substance: thymidine dinucleotide [pTpT]
- Labeling Index (percentage of labeled nuclei among 100 basal keratinocytes) ([1]; 1 daily application): 2 ± 0
- Labeling Index (percentage of labeled nuclei among 100 basal keratinocytes) ([1]; 2 daily applications): 1.5 ± 0.7
- proliferation compared to diluent-treated controls [2]: no inhibition of proliferation

From US7033829B2, “Method to inhibit cell growth using oligonucleotides” (Trustees of Boston University, priority 2000, dated 2006)
